The numbers were not newly measured in US8193207B2, “Lactam compounds and methods of using the same” (Incyte Corporation, priority 2005, dated 2012), which cites them from elsewhere.

Structures are written as SMILES.

This data set concerns the target T1, 11βHSD1 in the eye (Homo sapiens, UniProt P28845).
T1 construct: host or cells: eye tissue (non-pigmented epithelial cells) of healthy volunteers, in vivo
Conditions: healthy volunteers; after seven days of carbenoxolone treatment.

T1 sequence (P28845 whole entry): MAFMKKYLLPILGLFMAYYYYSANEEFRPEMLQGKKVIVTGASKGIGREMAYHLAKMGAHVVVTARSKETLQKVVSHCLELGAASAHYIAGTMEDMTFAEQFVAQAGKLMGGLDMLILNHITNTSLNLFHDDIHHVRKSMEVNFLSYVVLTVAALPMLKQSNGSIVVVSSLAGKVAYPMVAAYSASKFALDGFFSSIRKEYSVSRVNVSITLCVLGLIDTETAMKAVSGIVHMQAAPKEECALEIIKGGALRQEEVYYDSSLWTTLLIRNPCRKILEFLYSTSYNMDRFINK

Take `CC1(C)[C@@H](OC(=O)CCC(=O)O)CC[C@]2(C)[C@H]3C(=O)C=C4[C@@H]5C[C@@](C)(C(=O)O)CC[C@]5(C)CC[C@@]4(C)[C@]3(C)CC[C@@H]12` [carbenoxolone]: the IOP reduction is 18%.
